From patent US20020137929A1, “1 - (3-heterocyclylphenyl) isothiourea, -isourea, -guanidine and -amidine herbicidal agents” (Intellectual Property Department, BASF Aktiengesellschaft, priority 1998, published 2002)

Key:
[1] = system: AMBEL (Ragweed, Common); test: Postemergence herbicidal evaluation; assay type: in vivo, Ambrosia artemisifolia
Procedure, shortened: (§1)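 First, seedlings were raised for around two weeks. Next, test material in 50/50 acetone/water containing 0.5% TWEEN 20 was sprayed through a nozzle at 40 psi, equivalent to about 0.0156–0.500 kg/ha. Finally, after 4–5 weeks in the greenhouse, plants were rated 0–9.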

[2] = system: CASOB (Sicklepod); test: Postemergence herbicidal evaluation; assay type: in vivo, Cassia obtusifolia
Procedure, shortened: as §1

[3] = system: GALAP (Galium); test: Postemergence herbicidal evaluation; assay type: in vivo, Galium aparine
Procedure, shortened: as §1

[4] = system: GLXMAW (Soybean, Williams); test: Postemergence herbicidal evaluation; assay type: in vivo, Glycine max, (L.) Merr. cv Williams
Procedure, shortened: as §1

[5] = system: TRZAWR (Wheat, Winter, cv Riband); test: Postemergence herbicidal evaluation; assay type: in vivo, Triticum aestivum
Procedure, shortened: as §1

[6] = system: GALAP (Galium); test: Preemergence herbicidal evaluation; assay type: in vivo, Galium aparine; conditions: rated 4-5 weeks after treatment
Procedure, shortened: (§2)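 Scores (0–9) reflect visual comparison with control plants for stand, vigor, malformation, size and chlorosis. Compound was applied to the soil after sowing, before emergence, as an aqueous acetone spray (about 0.0156–0.500 kg/ha), and cups were kept in a greenhouse for 4–5 weeks.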

[7] = system: SETVI (Foxtail, Green); test: Preemergence herbicidal evaluation; assay type: in vivo, Setaria viridis; conditions: rated 4-5 weeks after treatment
Procedure, shortened: as §2

[8] = system: ORYSAT (Rice, Tebonnet); test: Preemergence herbicidal evaluation; assay type: in vivo, Oryza sativa, (L.) Tebonnet; conditions: rated 4-5 weeks after treatment
Procedure, shortened: as §2

[9] = system: ECHORC (Watergrass (Calif.)); test: Preemergence weed control under flooded paddy conditions; assay type: in vivo, Echinochloa oryzoides; conditions: rated 3-4 weeks after treatment
Procedure, shortened: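 Flooded-pot preemergence screen with silt loam and seeds in the upper 0.5 cm. Dose about 0.0313 to 0.500 kg/ha, delivered into flood water; visual 0-9 score after 3 to 4 weeks.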

[10] = system: CYPSE (Flatsedge); test: as above; assay type: in vivo, Cyperus serotinus; conditions: rated 3-4 weeks after treatment
Procedure, shortened: (§3)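 Herbicidal effect is scored visually on a 0-9 scale against an untreated control, three to four weeks after compounds are pipetted into the flood water (1.5 to 3 cm deep) over seeds planted in silt loam at 0.5 cm depth. Rates: about 0.0313 to 0.500 kg/ha.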

[11] = system: MOOVA (Monochoria); test: as above; assay type: in vivo, Monochoria vaginalis; conditions: rated 3-4 weeks after treatment
Procedure, shortened: as §3

[12] = system: SAGPY (Arrowhead (Pygmaea)); test: as above; assay type: in vivo, Sagittaria pygmaea; conditions: rated 3-4 weeks after treatment
Procedure, shortened: as §3

[13] = system: ECHORC (Watergrass (Calif.)); test: Postemergence weed control under flooded paddy conditions; assay type: in vivo, Echinochloa oryzoides; conditions: postemergence weeds, 3-4 weeks after treatment
Procedure, shortened: (§4)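 Weeds 3 to 5 cm tall and rice seedlings at the 1.5 to 2.5 leaf stage were flooded, with water held 1.5 to 3 cm above the soil. Compounds in 50/50 v/v aqueous/acetone went into the flood water at about 0.0313 to 0.500 kg/ha. Visual 0-9 ratings versus control were made 3 to 4 weeks later.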

[14] = system: SAGPY (Arrowhead (Pygmaea)); test: as above; assay type: in vivo, Sagittaria pygmaea; conditions: postemergence weeds, 3-4 weeks after treatment
Procedure, shortened: as §4

CCOC(=O)CN1C(=O)C(Cc2ccccc2OC(C)C(=O)OC)SC1=Nc1cc(-n2c(=O)cc(C(F)(F)F)n(C)c2=O)c(F)cc1Cl (stereo not drawn) [Compound 50, 2-{{2-Chloro-5-[3,6-dihydro-3-methyl-2,6-dioxo-4-(trifluoromethyl)-1(2H)-pyrimidinyl]-4-fluoro-phenyl}imino}-5-(o-hydroxybenzyl)-4-oxo-3-thiazolidineacetic acid, ethyl ester, ester with methyl lactate]
5.5: Postemergence herbicidal rating GLXMAW ([4]; Rate 0.0156 kg/ha) | Postemergence herbicidal rating GLXMAW ([4]; Rate 0.0313 kg/ha) | Postemergence herbicidal rating GLXMAW ([4]; Rate 0.0625 kg/ha)
0.0: Postemergence herbicidal rating CASOB ([2]; Rate 0.0156 kg/ha) | Postemergence herbicidal rating GALAP ([3]; Rate 0.0156 kg/ha) | Preemergence herbicidal rating GALAP ([6]; rate 0.0625 kg/ha) | Preemergence herbicidal rating GALAP ([6]; rate 0.1250 kg/ha) | Preemergence herbicidal rating GALAP ([6]; rate 0.2500 kg/ha) | Preemergence herbicidal rating SETVI ([7]; rate 0.0625 kg/ha) | Preemergence herbicidal rating SETVI ([7]; rate 0.1250 kg/ha) | Preemergence herbicidal rating SETVI ([7]; rate 0.2500 kg/ha) | Preemergence herbicidal rating ORYSAT ([8]; rate 0.0625 kg/ha) | Preemergence herbicidal rating ORYSAT ([8]; rate 0.1250 kg/ha) | Preemergence herbicidal rating ORYSAT ([8]; rate 0.2500 kg/ha) | Herbicidal rating CYPSE ([10]; 0.0313 kg/ha) | Herbicidal rating CYPSE ([10]; 0.0625 kg/ha) | Herbicidal rating CYPSE ([10]; 0.1250 kg/ha) | Herbicidal rating CYPSE ([10]; 0.2500 kg/ha) | Herbicidal rating MOOVA ([11]; 0.0313 kg/ha) | Herbicidal rating MOOVA ([11]; 0.0625 kg/ha)
7.0: Herbicidal rating ECHORC ([9]; 0.0625 kg/ha) | Herbicidal rating ECHORC ([9]; 0.1250 kg/ha) | Herbicidal rating ECHORC ([9]; 0.2500 kg/ha) | Herbicidal rating MOOVA ([11]; 0.2500 kg/ha) | Herbicidal rating ECHORC ([13]; rate 0.0625 kg/ha) | Herbicidal rating ECHORC ([13]; rate 0.1250 kg/ha) | Herbicidal rating ECHORC ([13]; rate 0.2500 kg/ha)
3.5: Postemergence herbicidal rating TRZAWR ([5]; Rate 0.0313 kg/ha)
1.0: Postemergence herbicidal rating CASOB ([2]; Rate 0.0313 kg/ha)
9.0: Postemergence herbicidal rating AMBEL ([1]; Rate 0.0156 kg/ha) | Postemergence herbicidal rating AMBEL ([1]; Rate 0.0313 kg/ha) | Postemergence herbicidal rating AMBEL ([1]; Rate 0.0625 kg/ha)
3.0: Postemergence herbicidal rating TRZAWR ([5]; Rate 0.0156 kg/ha) | Herbicidal rating MOOVA ([11]; 0.1250 kg/ha) | Herbicidal rating SAGPY ([12]; 0.1250 kg/ha) | Herbicidal rating SAGPY ([12]; 0.2500 kg/ha) | Herbicidal rating SAGPY ([14]; rate 0.1250 kg/ha) | Herbicidal rating SAGPY ([14]; rate 0.2500 kg/ha)
4.5: Postemergence herbicidal rating TRZAWR ([5]; Rate 0.0625 kg/ha)
2.0: Postemergence herbicidal rating CASOB ([2]; Rate 0.0625 kg/ha) | Postemergence herbicidal rating GALAP ([3]; Rate 0.0313 kg/ha) | Herbicidal rating SAGPY ([12]; 0.0313 kg/ha) | Herbicidal rating SAGPY ([12]; 0.0625 kg/ha) | Herbicidal rating SAGPY ([14]; rate 0.0313 kg/ha) | Herbicidal rating SAGPY ([14]; rate 0.0625 kg/ha)
4.0: Postemergence herbicidal rating GALAP ([3]; Rate 0.0625 kg/ha) | Herbicidal rating ECHORC ([9]; 0.0313 kg/ha) | Herbicidal rating ECHORC ([13]; rate 0.0313 kg/ha)

Cn1c(C(F)(F)F)cc(=O)n(-c2cc(/N=C3/SCC(=O)N3CC(=O)O)c(Cl)cc2F)c1=O [Compound 52, 2-{{2-Chloro-5-[3,6-dihydro-3-methyl-2,6-dioxo-4-(trifluoromethyl)-1(2H)-pyrimidinyl]-4-fluoro-phenyl}imino}-4-oxo-3-thiazolidineacetic acid]
4.0: Postemergence herbicidal rating GALAP ([3]; Rate 0.0315 kg/ha) | Preemergence herbicidal rating ORYSAT ([8]; rate 0.2500 kg/ha) | Herbicidal rating MOOVA ([11]; 0.2500 kg/ha)
5.0: Postemergence herbicidal rating AMBEL ([1]; Rate 0.0630 kg/ha) | Postemergence herbicidal rating GALAP ([3]; Rate 0.0630 kg/ha) | Postemergence herbicidal rating GLXMAW ([4]; Rate 0.0158 kg/ha)
9.0: Preemergence herbicidal rating SETVI ([7]; rate 0.2500 kg/ha)
3.0: Postemergence herbicidal rating AMBEL ([1]; Rate 0.0315 kg/ha) | Postemergence herbicidal rating TRZAWR ([5]; Rate 0.0315 kg/ha)
7.0: Preemergence herbicidal rating GALAP ([6]; rate 0.2500 kg/ha)
0.0: Preemergence herbicidal rating GALAP ([6]; rate 0.0313 kg/ha) | Preemergence herbicidal rating GALAP ([6]; rate 0.0625 kg/ha) | Preemergence herbicidal rating GALAP ([6]; rate 0.1250 kg/ha) | Preemergence herbicidal rating SETVI ([7]; rate 0.0313 kg/ha) | Preemergence herbicidal rating SETVI ([7]; rate 0.0625 kg/ha) | Preemergence herbicidal rating ORYSAT ([8]; rate 0.0313 kg/ha) | Preemergence herbicidal rating ORYSAT ([8]; rate 0.0625 kg/ha) | Preemergence herbicidal rating ORYSAT ([8]; rate 0.1250 kg/ha) | Herbicidal rating ECHORC ([9]; 0.2500 kg/ha) | Herbicidal rating CYPSE ([10]; 0.2500 kg/ha) | Herbicidal rating SAGPY ([12]; 0.2500 kg/ha) | Herbicidal rating ECHORC ([13]; rate 0.2500 kg/ha) | Herbicidal rating SAGPY ([14]; rate 0.2500 kg/ha)
4.5: Postemergence herbicidal rating TRZAWR ([5]; Rate 0.0630 kg/ha)
2.5: Postemergence herbicidal rating TRZAWR ([5]; Rate 0.0158 kg/ha)
2.0: Postemergence herbicidal rating CASOB ([2]; Rate 0.0630 kg/ha)
1.0: Postemergence herbicidal rating AMBEL ([1]; Rate 0.0158 kg/ha) | Postemergence herbicidal rating CASOB ([2]; Rate 0.0158 kg/ha) | Postemergence herbicidal rating CASOB ([2]; Rate 0.0315 kg/ha) | Postemergence herbicidal rating GALAP ([3]; Rate 0.0158 kg/ha) | Preemergence herbicidal rating SETVI ([7]; rate 0.1250 kg/ha)
6.0: Postemergence herbicidal rating GLXMAW ([4]; Rate 0.0315 kg/ha) | Postemergence herbicidal rating GLXMAW ([4]; Rate 0.0630 kg/ha)

Cn1c(C(F)(F)F)cc(=O)n(-c2cc(N=C3SCC(=O)N3[C@@H](Cc3ccccc3)C(=O)O)c(Cl)cc2F)c1=O [Compound 53, α-Benzyl-2-{{2-chloro-5-[3,6-dihydro-3-methyl-2,6-dioxo-4-(trifluoromethyl)-1(2H)-pyrimidinyl]-4-fluorophenyl}imino}-4-oxo-3-thiazolidineacetic acid, L-]
7.0: Postemergence herbicidal rating CASOB ([2]; Rate 0.0315 kg/ha) | Postemergence herbicidal rating GALAP ([3]; Rate 0.0315 kg/ha) | Preemergence herbicidal rating GALAP ([6]; rate 0.2500 kg/ha) | Preemergence herbicidal rating SETVI ([7]; rate 0.1250 kg/ha) | Preemergence herbicidal rating ORYSAT ([8]; rate 0.2500 kg/ha)
0.0: Preemergence herbicidal rating GALAP ([6]; rate 0.0313 kg/ha) | Preemergence herbicidal rating GALAP ([6]; rate 0.0625 kg/ha) | Preemergence herbicidal rating GALAP ([6]; rate 0.1250 kg/ha) | Preemergence herbicidal rating ORYSAT ([8]; rate 0.0313 kg/ha) | Herbicidal rating ECHORC ([9]; 0.0313 kg/ha) | Herbicidal rating ECHORC ([9]; 0.0625 kg/ha) | Herbicidal rating CYPSE ([10]; 0.0313 kg/ha) | Herbicidal rating CYPSE ([10]; 0.0625 kg/ha) | Herbicidal rating CYPSE ([10]; 0.1250 kg/ha) | Herbicidal rating CYPSE ([10]; 0.2500 kg/ha) | Herbicidal rating SAGPY ([12]; 0.0313 kg/ha) | Herbicidal rating SAGPY ([12]; 0.0625 kg/ha) | Herbicidal rating SAGPY ([12]; 0.1250 kg/ha) | Herbicidal rating SAGPY ([12]; 0.2500 kg/ha) | Herbicidal rating ECHORC ([13]; rate 0.0313 kg/ha) | Herbicidal rating ECHORC ([13]; rate 0.0625 kg/ha) | Herbicidal rating SAGPY ([14]; rate 0.0313 kg/ha) | Herbicidal rating SAGPY ([14]; rate 0.0625 kg/ha) | Herbicidal rating SAGPY ([14]; rate 0.1250 kg/ha) | Herbicidal rating SAGPY ([14]; rate 0.2500 kg/ha)
4.0: Postemergence herbicidal rating CASOB ([2]; Rate 0.0158 kg/ha) | Postemergence herbicidal rating TRZAWR ([5]; Rate 0.0630 kg/ha) | Preemergence herbicidal rating SETVI ([7]; rate 0.0625 kg/ha)
5.0: Preemergence herbicidal rating ORYSAT ([8]; rate 0.1250 kg/ha)
1.0: Preemergence herbicidal rating SETVI ([7]; rate 0.0313 kg/ha) | Preemergence herbicidal rating ORYSAT ([8]; rate 0.0625 kg/ha)
2.5: Postemergence herbicidal rating TRZAWR ([5]; Rate 0.0158 kg/ha)
3.0: Postemergence herbicidal rating GALAP ([3]; Rate 0.0158 kg/ha) | Postemergence herbicidal rating TRZAWR ([5]; Rate 0.0315 kg/ha) | Herbicidal rating ECHORC ([9]; 0.2500 kg/ha) | Herbicidal rating ECHORC ([13]; rate 0.2500 kg/ha)
2.0: Herbicidal rating ECHORC ([9]; 0.1250 kg/ha) | Herbicidal rating MOOVA ([11]; 0.0313 kg/ha) | Herbicidal rating MOOVA ([11]; 0.0625 kg/ha) | Herbicidal rating ECHORC ([13]; rate 0.1250 kg/ha)
9.0: Postemergence herbicidal rating AMBEL ([1]; Rate 0.0158 kg/ha) | Postemergence herbicidal rating AMBEL ([1]; Rate 0.0315 kg/ha) | Postemergence herbicidal rating AMBEL ([1]; Rate 0.0630 kg/ha) | Postemergence herbicidal rating CASOB ([2]; Rate 0.0630 kg/ha) | Postemergence herbicidal rating GALAP ([3]; Rate 0.0630 kg/ha) | Postemergence herbicidal rating GLXMAW ([4]; Rate 0.0158 kg/ha) | Postemergence herbicidal rating GLXMAW ([4]; Rate 0.0315 kg/ha) | Postemergence herbicidal rating GLXMAW ([4]; Rate 0.0630 kg/ha) | Preemergence herbicidal rating SETVI ([7]; rate 0.2500 kg/ha) | Herbicidal rating MOOVA ([11]; 0.1250 kg/ha) | Herbicidal rating MOOVA ([11]; 0.2500 kg/ha)
